Data: patent US10723695B2, “Microbiocidal phenylamidine derivatives” (SYNGENTA PARTICIPATIONS AG, priority 2015, dated 2020)

Row | Compound | melting point
1 | CCN(C)/C=N/c1cc(OC)c(C(O)(c2cccc(F)c2C)C(F)(F)F)cc1C (centres unmarked) [Compound E1.132] | 107 to 109 °C
2 | CCN(/C=N/c1cc(OC)c(C(O)(C(C)C)C(F)(F)F)cc1C)CC (centres unmarked) [Compound E1.133] | 60 to 62 °C
3 | CCCCC(O)(c1cc(C)c(/N=C/N2CCCC2)cc1OC)C(F)(F)F (centres unmarked) [Compound E1.134] | 103 to 105 °C
4 | COc1cc(/N=C/N(C)C(C)C)c(C)cc1C(O)(c1cc(F)ccc1F)C(F)(F)F (centres unmarked) [Compound E1.135] | 112 to 115 °C
5 | COc1cc(/N=C/N2CCCC2)c(C)cc1C(O)(C(C)C)C(F)(F)F (centres unmarked) [Compound E1.135] | 102 to 104 °C
6 | COc1cc(/N=C/N2CCCC2)c(C)cc1C(O)(c1ccccc1)C(F)(F)F (centres unmarked) [Compound E1.135] | 157 to 159 °C
7 | COc1cc(/N=C/N(C)C)c(C)cc1C(O)(c1ccccc1)C(F)(F)F (centres unmarked) [Compound E1.137] | 133 to 135 °C
8 | CCN(/C=N/c1cc(OC)c(C(O)(c2ccccc2)C(F)(F)F)cc1C)CC (centres unmarked) [Compound E1.139] | 102 to 104 °C
9 | COc1cc(/N=C/N(C)C(C)C)c(C)cc1C(O)(C=C(C)C)C(F)(F)F (centres unmarked) [Compound E1.141] | 77 to 79 °C
10 | CCN(C)/C=N/c1cc(OC)c(C(O)(c2cccc(F)c2F)C(F)(F)F)cc1C (centres unmarked) [Compound E1.143] | 130 to 132 °C
11 | COc1cc(/N=C/N(C)C(C)C)c(C)cc1C(O)(c1cccc(F)c1F)C(F)(F)F (centres unmarked) [Compound E1.144] | 97 to 99 °C
12 | CCN(C)/C=N/c1cc(OC)c(C(O)(c2cc(F)ccc2C)C(F)(F)F)cc1C (centres unmarked) [Compound E1.145] | 95 to 97 °C
13 | COc1cc(/N=C/N(C)C(C)C)c(C)cc1C(O)(c1cc(F)ccc1C)C(F)(F)F (centres unmarked) [Compound E1.146] | 116 to 118 °C
14 | CCN(C)/C=N/c1cc(OC)c(C(O)(c2c(F)cccc2F)C(F)(F)F)cc1C (centres unmarked) [Compound E1.147] | 128 to 130 °C
15 | COc1cc(/N=C/N(C)C(C)C)c(C)cc1C(O)(c1c(F)cccc1F)C(F)(F)F (centres unmarked) [Compound E1.148] | 119 to 121 °C
16 | COc1cc(/N=C/N(C)C(C)C)c(C)cc1C(O)(c1ccccc1C)C(F)(F)F (centres unmarked) [Compound E1.148] | 138 to 140 °C
17 | COc1cc(/N=C/N(C)C(C)C)c(C)cc1C(O)(c1cc(F)cc(F)c1)C(F)(F)F (centres unmarked) [Compound E1.149] | 110 to 112 °C
18 | COc1cc(/N=C/N(C)C(C)C)c(C)cc1C(O)(c1ccccc1F)C(F)(F)F (centres unmarked) [Compound E1.150] | 86 to 88 °C
19 | COc1cc(/N=C/N(C)C(C)C)c(C)cc1C(O)(c1ccccc1Cl)C(F)(F)F (centres unmarked) [Compound E1.151] | 67 to 69 °C
20 | COc1cc(/N=C/N(C)C(C)C)c(C)cc1C(O)(c1cccc(F)c1)C(F)(F)F (centres unmarked) [Compound E1.152] | 92 to 94 °C
21 | CCN(C)/C=N/c1cc(OC)c(C(O)(c2ccccc2)C(F)(F)F)cc1F (centres unmarked) [Compound E1.153] | 144 to 146 °C
22 | CCN(C)/C=N/c1cc(OC)c(C(O)(c2cccnc2F)C(F)(F)F)cc1C (centres unmarked) [Compound E1.157] | 113 to 115 °C
23 | COc1cc(/N=C/N(C)C(C)C)c(C)cc1C(O)(c1cccnc1F)C(F)(F)F (centres unmarked) [Compound E1.158] | 120 to 122 °C
